Experimental data published in patent US11629171B2, “Beta-hairpin peptidomimetics” (POLYPHOR AG, priority 2017, dated 2023).
Converted amounts (≈) assume the structure as drawn. Where a SMILES comes first, the peptide text is derived from it. Bridges are numbered along the chain shown (N, C = ends). Roman numbers before positions name the chains, in order. [ ]: non-standard residue; d: D form. Thr(ol) = C[C@@H](O)[C@H](N)CO; Pen = CC(C)(S)[C@H](N)C(=O)O; Tle = CC(C)(C)[C@H](N)C(=O)O; Hiv = CC(C)[C@H](O)C(=O)O; dDab = NCC[C@@H](N)C(=O)O; Orn = NCCC[C@H](N)C(=O)O; Dab = NCC[C@H](N)C(=O)O; Dap = NC[C@H](N)C(=O)O

Columns and labels:
Assay type in all cases: cell-based
[1] = tested on: Acinetobacter baumannii DSM 30008; conditions: DSM 30008
How it was run: (§1)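 MIC in μg/mL, read as absence of visible growth after 18-20 h incubation at 35° C, by standard CLSI microdilution. Peptides tested in two-fold serial dilution in cation-adjusted MH-II broth containing 0.002% (final) Polysorbate 80, against roughly 10^6 CFU/mL inocula.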

[2] = tested on: Acinetobacter baumannii 872842; conditions: 872842
How it was run: as §1

[3] = tested on: Pseudomonas aeruginosa ATCC 27853; conditions: ATCC 27853
How it was run: as §1

[4] = tested on: Klebsiella pneumoniae 968733; conditions: 968733
How it was run: as §1

[5] = tested on: Klebsiella pneumoniae SSI #3010; conditions: SSI #3010
How it was run: as §1

[6] = tested on: Escherichia coli ATCC 25922; conditions: ATCC 25922
How it was run: as §1

[7] = tested on: Enterobacter cloacae 848840; conditions: 848840
How it was run: as §1

[8] = tested on: Escherichia coli 926415; conditions: 926415
How it was run: as §1

[9] = tested on: human red blood cells (hRBC); test: Hemolysis; conditions: red cells of human, 1 h, 200
How it was run: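 hRBC washed 4× in PBS; 200 μg/mL peptide + 20% (v/v) hRBC, 1 h, 37° C, 300 rpm. Spin, supernatant ~7.5-fold diluted, OD540 blank corrected. % hemolysis = OD540 peptide / OD540 Triton X-100 × 100.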

Row | SMILES | MIC [1] [µg/mL] | MIC [2] [µg/mL] | MIC [3] [µg/mL] | MIC [4] [µg/mL] | MIC [5] [µg/mL] | MIC [6] [µg/mL] | MIC [7] [µg/mL] | MIC [8] [µg/mL] | Hemolysis at 200 μg/mL [9] [%]
1 | CC(C)C[C@@H]1NC(=O)[C@@H](CC(C)C)NC(=O)[C@H](CCN)NC(=O)[C@@H](NC(=O)[C@H](CN)NC(=O)[C@@H](NC(=O)[C@H](CCN)NC(=O)CC[C@@H]2NC(=O)CNC(=O)[C@H](CCCN)NC(=O)[C@@H](NC(=O)[C@H](Cc3ccc(O)cc3)NC(=O)[C@@H](NC(=O)[C@@H](O)C(C)C)[C@@H](C)O)CSSC[C@@H](C(=O)N[C@H](C(=O)N[C@@H](C)C(=O)N[C@H](CO)[C@@H](C)O)C(C)(C)C)NC(=O)[C@H](Cc3c[nH]c4ccccc34)NC2=O)[C@@H](C)O)CCNC(=O)[C@H]([C@@H](C)O)NC(=O)[C@H](CCN)NC(=O)[C@H](CCN)NC1=O [Ex. 212] (I: H-[Hiv]TYC[Orn]GEWC[Tle]A[Thr(ol)] / II: [Dab]T[Dap][Dab][Dab][dL]L[Dab][Dab]T; disulfide I:4-I:9; amide I:7-II:N; lactam II:4-II:C) | 0.125 (≈ 0.0534 µM) | 0.5 (≈ 0.214 µM) | 0.25 (≈ 0.107 µM) | 2 (≈ 0.854 µM) | 0.25 (≈ 0.107 µM) | 0.0625 (≈ 0.0267 µM) | 0.5 (≈ 0.214 µM) | 1 (≈ 0.427 µM) | 1
2 | CC(C)C[C@@H]1NC(=O)[C@@H](CC(C)C)NC(=O)[C@H](CCN)NC(=O)[C@@H](NC(=O)[C@H](CN)NC(=O)[C@@H](NC(=O)[C@H](CCN)NC(=O)CC[C@@H]2NC(=O)[C@@H](CCN)NC(=O)CNC(=O)[C@@H](NC(=O)[C@H](Cc3ccc(O)cc3)NC(=O)[C@@H](NC(=O)[C@@H](O)C(C)C)[C@@H](C)O)CSSC[C@@H](C(=O)N[C@H](C(=O)N[C@@H](C)C(=O)N[C@H](CO)[C@@H](C)O)C(C)(C)C)NC(=O)[C@H](Cc3c[nH]c4ccccc34)NC2=O)[C@@H](C)O)CCNC(=O)[C@H]([C@@H](C)O)NC(=O)[C@H](CCN)NC(=O)[C@H](CCN)NC1=O [Ex. 213] (I: H-[Hiv]TYCG[dDab]EWC[Tle]A[Thr(ol)] / II: [Dab]T[Dap][Dab][Dab][dL]L[Dab][Dab]T; disulfide I:4-I:9; amide I:7-II:N; lactam II:4-II:C) | 0.0625 (≈ 0.0268 µM) | 0.125 (≈ 0.0537 µM) | 0.25 (≈ 0.107 µM) | 0.5 (≈ 0.215 µM) | 0.125 (≈ 0.0537 µM) | 0.125 (≈ 0.0537 µM) | 1 (≈ 0.43 µM) | 0.5 (≈ 0.215 µM) | <1
3 | CC(C)C[C@@H]1NC(=O)[C@@H](CC(C)C)NC(=O)[C@H](CCN)NC(=O)[C@@H](NC(=O)[C@H](CN)NC(=O)[C@@H](NC(=O)[C@H](CCN)NC(=O)CC[C@H]2NC(=O)[C@@H](CCN)NC(=O)CNC(=O)[C@@H](NC(=O)[C@H](Cc3ccc(O)cc3)NC(=O)[C@@H](NC(=O)[C@@H](O)C(C)C)[C@@H](C)O)CSSC[C@@H](C(=O)N[C@H](C(=O)N[C@@H](C)C(=O)N[C@H](CO)[C@@H](C)O)C(C)(C)C)NC(=O)[C@H](Cc3c[nH]c4ccccc34)NC2=O)[C@@H](C)O)CCNC(=O)[C@H]([C@@H](C)O)NC(=O)[C@H](CCN)NC(=O)[C@H](CCN)NC1=O [Ex. 214] (I: H-[Hiv]TYCG[dDab][dE]WC[Tle]A[Thr(ol)] / II: [Dab]T[Dap][Dab][Dab][dL]L[Dab][Dab]T; disulfide I:4-I:9; amide I:7-II:N; lactam II:4-II:C) | 0.125 (≈ 0.0537 µM) | 0.5 (≈ 0.215 µM) | 0.5 (≈ 0.215 µM) | 0.5 (≈ 0.215 µM) | 0.25 (≈ 0.107 µM) | 0.0625 (≈ 0.0268 µM) | 8 (≈ 3.44 µM) | 0.5 (≈ 0.215 µM) | <1
4 | CC(=O)N[C@H](C(=O)N[C@H](C(=O)N[C@@H](Cc1ccc(O)cc1)C(=O)N[C@H]1CSSC[C@@H](C(=O)N[C@H](C(=O)N[C@@H](C)C(=O)N[C@H](C(N)=O)[C@@H](C)O)C(C)(C)C)NC(=O)[C@H](Cc2c[nH]c3ccccc23)NC(=O)[C@H](CO)NC(=O)[C@@H](CCN)NC(=O)[C@H](CCC(=O)N[C@@H](CCN)C(=O)N[C@H](C(=O)N[C@@H](CN)C(=O)N[C@H]2CCNC(=O)[C@H]([C@@H](C)O)NC(=O)[C@H](CCN)NC(=O)[C@H](CCN)NC(=O)[C@H](CC(C)C)NC(=O)[C@@H](CC(C)C)NC(=O)[C@H](CCN)NC2=O)[C@@H](C)O)NC1=O)[C@@H](C)O)C(C)C [Ex. 220] (I: Ac-VTYCE[dDab]SWC[Tle]AT-NH2 / II: [Dab]T[Dap][Dab][Dab][dL]L[Dab][Dab]T; disulfide I:4-I:9; amide I:5-II:N; lactam II:4-II:C) | 0.03125 (≈ 0.013 µM) | 0.0625 (≈ 0.0259 µM) | 0.125 (≈ 0.0518 µM) | 0.125 (≈ 0.0518 µM) | 0.0625 (≈ 0.0259 µM) | 0.03125 (≈ 0.013 µM) | 0.125 (≈ 0.0518 µM) | 0.125 (≈ 0.0518 µM) | <1
5 | CC(=O)N[C@H](C(=O)N[C@H](C(=O)N[C@@H](Cc1ccc(O)cc1)C(=O)N[C@H]1CSSC(C)(C)[C@@H](C(=O)N[C@H](C(=O)N[C@H](C(=O)N[C@H](C(N)=O)[C@@H](C)O)[C@@H](C)O)C(C)(C)C)NC(=O)[C@H](Cc2c[nH]c3ccccc23)NC(=O)[C@H](CO)NC(=O)[C@@H](CCN)NC(=O)[C@H](CCC(=O)N[C@@H](CCN)C(=O)N[C@H](C(=O)N[C@@H](CN)C(=O)N[C@H]2CCNC(=O)[C@H]([C@@H](C)O)NC(=O)[C@H](CCN)NC(=O)[C@H](CCN)NC(=O)[C@H](CC(C)C)NC(=O)[C@@H](CC(C)C)NC(=O)[C@H](CCN)NC2=O)[C@@H](C)O)NC1=O)[C@@H](C)O)C(C)C [Ex. 221] (I: Ac-VTYCE[dDab]SW[Pen][Tle]TT-NH2 / II: [Dab]T[Dap][Dab][Dab][dL]L[Dab][Dab]T; disulfide I:4-I:9; amide I:5-II:N; lactam II:4-II:C) | 0.0625 (≈ 0.0253 µM) | 0.0625 (≈ 0.0253 µM) | 0.125 (≈ 0.0506 µM) | 0.25 (≈ 0.101 µM) | 0.125 (≈ 0.0506 µM) | 0.0625 (≈ 0.0253 µM) | 0.125 (≈ 0.0506 µM) | 0.125 (≈ 0.0506 µM) | 2
6 | CC(=O)N[C@H](C(=O)N[C@H](C(=O)N[C@@H](Cc1ccc(O)cc1)C(=O)N[C@H]1CSSC(C)(C)[C@@H](C(=O)N[C@H](C(=O)N[C@H](C(=O)N[C@H](C(N)=O)[C@@H](C)O)[C@@H](C)O)C(C)C)NC(=O)[C@H](Cc2c[nH]c3ccccc23)NC(=O)[C@H](CO)NC(=O)[C@@H](CCN)NC(=O)[C@H](CCC(=O)N[C@@H](CCN)C(=O)N[C@H](C(=O)N[C@@H](CN)C(=O)N[C@H]2CCNC(=O)[C@H]([C@@H](C)O)NC(=O)[C@H](CCN)NC(=O)[C@H](CCN)NC(=O)[C@H](CC(C)C)NC(=O)[C@@H](CC(C)C)NC(=O)[C@H](CCN)NC2=O)[C@@H](C)O)NC1=O)[C@@H](C)O)C(C)C [Ex. 222] (I: Ac-VTYCE[dDab]SW[Pen]VTT-NH2 / II: [Dab]T[Dap][Dab][Dab][dL]L[Dab][Dab]T; disulfide I:4-I:9; amide I:5-II:N; lactam II:4-II:C) | 0.0625 (≈ 0.0254 µM) | 0.0625 (≈ 0.0254 µM) | 0.125 (≈ 0.0509 µM) | 0.25 (≈ 0.102 µM) | 0.0625 (≈ 0.0254 µM) | 0.03125 (≈ 0.0127 µM) | 0.125 (≈ 0.0509 µM) | 0.25 (≈ 0.102 µM) | 1
